{"source": "BindingDB's records for doi:10.7270/Q2HX1B3F", "about": "(The Scripps Research Institute Molecular Screening Center, 2007)", "data": [{"molecular_target": "Collagenase 3 (Homo sapiens, UniProt P45452)", "assay": "MMP13 inhibitors among autofluorescent compounds, dose response, biochemical, fluorescence (AID 769)", "units": {"IC50": "µM"}, "values": [{"compound": "O=S(=O)(Nc1ccc(-c2nc3cccnc3s2)cc1)c1cccs1", "IC50": "> 39.8"}, {"compound": "CCOC(=O)CSc1nc(-c2ccc3c(c2)OCO3)ccc1C#N", "note": "[2-[[6-(1,3-benzodioxol-5-yl)-3-cyano-2-pyridinyl]thio]acetic acid ethyl ester]", "IC50": "> 39.8"}, {"compound": "COc1ccc(-c2ccc(-c3noc(-c4ccccc4C)n3)c(OC)n2)cc1", "note": "[3-(2-methoxy-6-(4-methoxyphenyl)pyridin-3-yl)-5-o-tolyl-1,2,4-oxadiazole]", "IC50": 3.97}, {"compound": "Oc1ccc(/N=C/c2ccc(-c3cccs3)s2)cc1", "note": "[4-[(5-thiophen-2-yl-2-thiophenyl)methylideneamino]phenol]", "IC50": 1.68}, {"compound": "COc1cc(OC)cc(-c2nnc(Nc3nc4c(F)cccc4s3)o2)c1", "note": "[5-(3,5-dimethoxyphenyl)-N-(4-fluorobenzo[d]thiazol-2-yl)-1,3,4-oxadiazol-2-amine]", "IC50": 3.52}, {"compound": "Fc1cccc2sc(Nc3nnc(-c4ccccc4)o3)nc12", "note": "[(4-fluoro-1,3-benzothiazol-2-yl)-(5-phenyl-1,3,4-oxadiazol-2-yl)amine]", "IC50": "> 39.8"}, {"compound": "COc1cccc(-c2nnc(Nc3nc4c(F)cccc4s3)o2)c1", "note": "[(4-fluoro-1,3-benzothiazol-2-yl)-[5-(3-methoxyphenyl)-1,3,4-oxadiazol-2-yl]amine]", "IC50": "> 39.8"}, {"compound": "Cc1nn(-c2ccccc2)c2sc(-c3nnc(S)o3)cc12", "note": "[MLS000043319]", "IC50": 0.883}]}]}
